Measured values taken from patent US4537614A, “S-aryl and S-aliphatic diamidophosphorothiolates as urease inhibitors and urease inhibited urea based fertilizer compositions” (Allied Corporation, priority 1984, dated 1985).

test system: urease; assay: Efficacy as urease inhibitor, general statement (long term residual activity); details: primarily because of relatively long term residual activity

Q: With `CCCCSP(N)(N)=O` [Experiment 2, S-(n-Butyl) Diamidophosphorothiolate] as the molecule, how does the “efficacy among the especially efficacious compounds” value read?
A: Its value is “most efficacious”.

Q: With `CC(C)CSP(N)(N)=O` [Experiment 4, S-(iso-Butyl) Diamidophosphorothiolate] as the molecule, how does the “efficacy among the especially efficacious compounds” value read?
A: Its value is “most efficacious”.

Q: For `CCCCCCSP(N)(N)=O` [Experiment 5, S-(n-Hexyl) Diamidophosphorothiolate], which “efficacy among the especially efficacious compounds” value is on record?
A: The value was “most efficacious”.

test system: urease; assay: Urease Inhibiting Efficacy Test in Wisconsin soil (Plano silt loam, pH 5.4); format: biochemical; details: 200 micrograms test compound (footnote *) + 42.8 mg urea per 20 g air dry soil, 25° C., 3 days, remaining urea
Procedure: (§1) Representative compounds were tested to evaluate their efficacy in the inhibition of urease as compared to structurally similar compounds. The inhibition tests were run in a New York soil (Cazenovia silt loam, pH 7.2) and a Wisconsin soil (Plano silt loam, pH 5.4). […] The bottle was capped with perforated aluminum foil and incubated at 25° C. for 3 days prior to extraction with 100 mL of a 2M potassium chloride solution containing 0.5 mg of phenylmercuric acetate. The extracts were then analyzed for remaining urea using an autoanalyzer. Percent inhibition was calculated as
(§2) % Inhibition=[1-(A-B/A-C)]×100%
(§3) where A is urea recovered from unincubated sample (urea added to soil and immediately extracted); B is urea recovered from inhibited sample; and C is urea recovered from the control (uninhibited sample).

Q: Which “% Inhibition Wisconsin Soil” value does the source give for `CCCCSP(N)(N)=O` [Experiment 2, S-(n-Butyl) Diamidophosphorothiolate] here?
A: The value was 82%.

Q: With `CCC(C)SP(N)(N)=O` (stereo not drawn) [Experiment 3, S-(2-Butyl) Diamidophosphorothiolate] as the molecule, how does the “% Inhibition Wisconsin Soil” value read?
A: The value was 84%.

Q: Which “% Inhibition Wisconsin Soil” value does the source give for `CC(C)CSP(N)(N)=O` [Experiment 4, S-(iso-Butyl) Diamidophosphorothiolate] here?
A: Its value is 83%.

Q: For `CCCCCCSP(N)(N)=O` [Experiment 5, S-(n-Hexyl) Diamidophosphorothiolate], which “% Inhibition Wisconsin Soil” value is on record?
A: The value was 66%.

Q: Which “% Inhibition Wisconsin Soil” value does the source give for `NP(N)(=O)SC1CCCCC1` [Experiment 6, S-(Cyclohexyl) Diamidophosphorothiolate] here?
A: Its value is 58%.

same assay, conditions: 800 micrograms test compound + 42.8 mg urea per 20 g air dry soil, 25° C., 3 days, remaining urea

Q: How did the “% Inhibition Wisconsin Soil” value turn out when `CSP(N)(N)=O` [S-Methyl Diamidophosphorothiolate] was run?
A: Its value is 93%.

test system: urease; assay: Urease Inhibiting Efficacy Test in New York soil (Cazenovia silt loam, pH 7.2); format: biochemical; details: 200 micrograms test compound (footnote *) + 42.8 mg urea per 20 g air dry soil, 25° C., 3 days, remaining urea
Procedure: as §1, §2, §3

Q: Which “% Inhibition Cazenovia Soil” value does the source give for `CCCCSP(N)(N)=O` [Experiment 2, S-(n-Butyl) Diamidophosphorothiolate] here?
A: The value was 74%.

Q: Which “% Inhibition Cazenovia Soil” value does the source give for `CCC(C)SP(N)(N)=O` (stereo not drawn) [Experiment 3, S-(2-Butyl) Diamidophosphorothiolate] here?
A: The value was 74%.

Q: `CC(C)CSP(N)(N)=O` [Experiment 4, S-(iso-Butyl) Diamidophosphorothiolate] was tested. Which “% Inhibition Cazenovia Soil” value did it give?
A: The value was 80%.

Q: `CCCCCCSP(N)(N)=O` [Experiment 5, S-(n-Hexyl) Diamidophosphorothiolate] was tested. Which “% Inhibition Cazenovia Soil” value did it give?
A: Its value is 52%.

Q: How did the “% Inhibition Cazenovia Soil” value turn out when `NP(N)(=O)SC1CCCCC1` [Experiment 6, S-(Cyclohexyl) Diamidophosphorothiolate] was run?
A: The value was 66%.

same assay, conditions: 800 micrograms test compound + 42.8 mg urea per 20 g air dry soil, 25° C., 3 days, remaining urea

Q: How did the “% Inhibition Cazenovia Soil” value turn out when `COP(N)(N)=O` [Comp. Ex. 1, reference compound] was run?
A: Its value is 34%.

Q: Which “% Inhibition Cazenovia Soil” value does the source give for `CCCOP(N)(N)=O` [Comp. Ex. 2, reference compound] here?
A: Its value is 15%.

Q: How did the “% Inhibition Cazenovia Soil” value turn out when `CSP(N)(N)=O` [S-Methyl Diamidophosphorothiolate] was run?
A: The value was 93%.
